Measurements: patent publication US9932621B2, “Modulators for Sirt5 and assays for screening same” (CORNELL UNIVERSITY, priority 2010, dated 2018)
Residue numbers refer to the chain shown, from its start. Entries after “also recorded” stand apart in the source; their conditions may differ. Where two headings read alike, the source gives them in different places. *1 amine or outer side, *2 acyl side, *3 side chain or, on linkers, in order; H or OH if unused. Where no end group is shown, it is not given here. The star is where a group is joined. AMC = Cc1cc(=O)oc2cc(N*)ccc12; Suc = O=C(CCC(=O)[*:2])[*:1]

Tests used:
Sirt2 [1] = target: T1, Sirt2 (Homo sapiens, UniProt Q8IXJ6); test: Sirt2 inhibition IC50; type: biochemical
T1 construct: made in house
T1 sequence (Q8IXJ6 1-389): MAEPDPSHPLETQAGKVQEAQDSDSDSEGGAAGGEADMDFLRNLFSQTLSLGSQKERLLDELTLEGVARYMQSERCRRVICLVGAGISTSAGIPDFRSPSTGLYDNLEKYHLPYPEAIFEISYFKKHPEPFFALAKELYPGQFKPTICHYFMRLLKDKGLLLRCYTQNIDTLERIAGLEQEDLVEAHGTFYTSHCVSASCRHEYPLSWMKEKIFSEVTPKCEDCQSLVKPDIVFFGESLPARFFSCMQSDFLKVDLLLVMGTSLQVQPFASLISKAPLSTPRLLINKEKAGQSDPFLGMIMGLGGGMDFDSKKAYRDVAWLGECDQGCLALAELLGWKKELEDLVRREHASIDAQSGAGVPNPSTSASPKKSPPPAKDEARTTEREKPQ
Description: (§1) All assays were carried out under identical enzyme (1 μM) and substrate (0.3 mM acyl peptide, 0.5 mM NAD) concentrations.

Sirt3 = target: T2, Sirt3 (Homo sapiens, UniProt Q9NTG7); test: Sirt3 inhibition IC50; type: biochemical
T2 construct: made in house
T2 sequence (Q9NTG7 1-399): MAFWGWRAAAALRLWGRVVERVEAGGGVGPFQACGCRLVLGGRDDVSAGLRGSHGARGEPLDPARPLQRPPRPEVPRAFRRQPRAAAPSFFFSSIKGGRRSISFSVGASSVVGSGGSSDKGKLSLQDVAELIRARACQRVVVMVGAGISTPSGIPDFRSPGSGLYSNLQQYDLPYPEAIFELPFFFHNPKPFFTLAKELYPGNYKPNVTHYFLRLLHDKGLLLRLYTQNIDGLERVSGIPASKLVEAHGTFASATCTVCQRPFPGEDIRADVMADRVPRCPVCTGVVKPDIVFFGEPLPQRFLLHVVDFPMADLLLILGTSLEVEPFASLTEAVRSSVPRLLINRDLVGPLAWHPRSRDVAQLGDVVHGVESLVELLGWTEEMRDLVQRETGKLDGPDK
Description: as §1

Sirt5 [2] = target: T3, Sirt5 (Homo sapiens, UniProt Q9NXA8); test: Sirt5 inhibition IC50 (desuccinylase, HPLC-based assay); type: biochemical; details: Sirt5 1 μM, 0.3 mM acyl peptide, 0.5 mM NAD; * = no inhibition at 100 μM
T3 construct: made in house
T3 sequence (Q9NXA8 37-310): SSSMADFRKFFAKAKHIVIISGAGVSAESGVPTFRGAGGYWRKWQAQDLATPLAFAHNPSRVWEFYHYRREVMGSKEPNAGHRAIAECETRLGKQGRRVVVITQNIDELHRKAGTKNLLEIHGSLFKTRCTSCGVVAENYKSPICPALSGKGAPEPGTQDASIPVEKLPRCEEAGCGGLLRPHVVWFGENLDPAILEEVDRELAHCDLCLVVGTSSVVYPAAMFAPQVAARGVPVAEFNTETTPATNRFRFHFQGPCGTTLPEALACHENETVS
Description: as §1

Sirt5 [3] = target: T3, Sirt5; test: Screening for Sirt5 inhibitors with ISGASE(SuK)-AMC in the fluorogenic assay; type: biochemical; details: compound 30 μM, ISGASE(SuK)-AMC 0.3 mM, Sirt5 1 μM, FIG. 13
Description: SirT5 (1 μM) was incubated with ISGASE(SuK)-AMC (SEQ ID NO:11) peptide (0.3 mM), NAD (0.5 mM) in Tris-HCl buffer (pH 7.4, 20 mM) with DTT (1 mM) in 60 μL reactions for 4 hours at 37° C. Then trypsin (1 μg) and CaCl2 (1 mM) were added and the reactions were incubated for 3 hours at 37° C. The reactions were the diluted with 50 μL water. The mixture (100 μL) was transferred to 96 well plate and the fluorescence was recorded by BIO-TEK® Synergy HT plate reader (Optics Position: Top, Sensitivity: 50, Excitation at the wavelength of 360 nm and Emission at the wavelength of 460 nm).
The procedure was the same as described above (Assaying Sirt5 activity on ISGASE(SuK)-AMC in the fluorogenic assay), except that different compounds (30 μM) were included in the reactions. In the desuccinylation step, Sirt5 was added last to initiate the desuccinylation reaction.

Sirt2 [4] = target: T1, Sirt2; test: Secondary screening using Sirt2 and ISGASE(AcK)-AMC fluorogenic assay; type: biochemical; details: inhibitor 30 μM, ISGASE(AcK)-AMC 0.3 mM, Sirt2 1 μM, FIG. 15
Description: SirT2 (1 μM) was incubated with ISGASE(AcK)-AMC (SEQ ID NO:13) peptide (0.3 mM), inhibitors (30 μM), NAD (0.5 mM) in Tris-HCl buffer (pH 7.4, 20 mM) containing dithiothreitol (DTT, 1 mM) in a 60 μL reaction for 4 hours at 37° C. Then trypsin (1 μg) and CaCl2 (1 mM) were added and the reaction were incubated for 3 hours at 37° C. The reactions were diluted with 50 μL water. The mixture (100 μL) was transferred to 96 well plate and the fluorescence was recorded by BIO-TEK® Synergy HT (Optics Position: Top, Sensitivity: 50, Excitation at the wavelength of 360 nm and Emission at the wavelength of 460 nm).

Sirt1 [5] = target: T4, Sirt1 (Homo sapiens, UniProt Q96EB6); test: Sirt1 inhibition IC50; type: biochemical; design: made in house
T4 sequence (Q96EB6 1-747): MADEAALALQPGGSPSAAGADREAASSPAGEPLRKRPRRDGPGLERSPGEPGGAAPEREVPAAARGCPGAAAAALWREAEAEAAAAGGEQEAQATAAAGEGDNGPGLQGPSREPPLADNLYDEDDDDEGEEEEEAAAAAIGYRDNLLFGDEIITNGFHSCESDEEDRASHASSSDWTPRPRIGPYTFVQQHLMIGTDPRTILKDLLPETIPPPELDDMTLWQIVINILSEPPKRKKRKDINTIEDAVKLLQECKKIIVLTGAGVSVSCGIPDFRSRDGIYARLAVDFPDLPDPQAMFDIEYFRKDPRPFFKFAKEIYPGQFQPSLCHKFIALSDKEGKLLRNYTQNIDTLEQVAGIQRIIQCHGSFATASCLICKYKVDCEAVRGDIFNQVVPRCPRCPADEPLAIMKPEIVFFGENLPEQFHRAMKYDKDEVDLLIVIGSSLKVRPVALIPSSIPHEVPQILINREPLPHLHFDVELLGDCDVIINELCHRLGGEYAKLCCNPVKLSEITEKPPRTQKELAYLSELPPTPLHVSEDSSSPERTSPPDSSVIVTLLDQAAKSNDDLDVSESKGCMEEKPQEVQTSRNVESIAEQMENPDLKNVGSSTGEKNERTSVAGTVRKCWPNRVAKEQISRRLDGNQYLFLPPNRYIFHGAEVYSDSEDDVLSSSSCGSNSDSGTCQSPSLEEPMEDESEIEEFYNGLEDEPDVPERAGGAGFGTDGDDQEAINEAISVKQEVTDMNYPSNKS
Description: as §1

Sirt1 [6] = target: T4, Sirt1; details: Sirt1, literature value; read-out: IC50, reported value in parentheses; cited from earlier work
Sirt5 [7] = target: T3, Sirt5; test: Sirt5 fluorogenic assay with KQTAR(SuK)-AMC; type: biochemical; details: reaction with Sirt5
Description: SirT5 (1 μM) was incubated with KQTAR(SuK)-AMC (SEQ ID NO: 10) peptide (0.3 mM), NAD (0.5 mM) in Tris-HCl buffer (pH 7.4, 20 mM) containing dithiothreitol (DTT, 1 mM) in a 60 μL reaction for 16 hours at 37° C. Then trypsin (1 μg) and CaCl2 (1 mM) were added and the reaction were incubated for 14 hours at 37° C. The reactions were diluted with 50 μL water. The mixture (100 μL) was transferred to 96 well plate and the fluorescence was recorded by BIO-TEK® Synergy HT plate reader (Optics Position: Top, Sensitivity: 50, Excitation at the wavelength of 360 nm and Emission at the wavelength of 460 nm).

Sirt5 [8] = target: T3, Sirt5; test: Sirt5-catalyzed desuccinylation of AMC-succinyl peptides monitored by HPLC; type: biochemical
Description: […] The reactions were stopped with 200 mM HCl and 320 mM acetic acid, analyzed by HPLC with a reverse phase C18 column (250×4.6 mm, 90 A, 10 μm, GraceVydac, Southborough, Mass.), with a linear gradient of 0% to 20% B for 10 min (1 mL/min).

Sirt5 [9] = target: T3, Sirt5; test: Deacylation kinetics (kcat, Km) by HPLC, Sirt5; type: biochemical; details: wild-type Sirt5, Table 3
Description: (§2) For determination of kcat and Km, human Sirt1, Sirt2, Sirt3 and Sirt5 were measured by detecting the deacylated peptide from H3K9 acyl peptides using HPLC. Purified Sirtuin was incubated with 1.0 mM of NAD in 20 mM Tris-HCl buffer (pH 7.5) containing acyl peptides (0-750 μM) and 1 mM DTT in 60 μL reactions at 37° C. The reactions were stopped with 100 mM HCl and 160 mM acetic acid, analyzed by HPLC with a reverse phase C18 column (250×4.6 mm, 90 A, 10 μm, GraceVydac, Southborough, Mass.), with a linear gradient of 0% to 20% B for 10 min (1 mL/min). […] The kcat and Km values were obtained by curve-fitting the Vinitial/[E] versus [S] plot using KaleidaGraph. For Sirt5 R105M, the observed second order rate constant, kobs (rate/([Sirtuin][NAD])) was detected instead of kcat and Km because of the very weak deacylation activity. The experiments were done in duplicate.

Sirt5 H158Y = target: T5, Sirt5 H158Y (Homo sapiens, UniProt Q9NXA8, H158Y); test: Deacylation kinetics by HPLC, mutant Sirt5 H158Y; type: biochemical; details: read-out: Km for peptide
T5 sequence (Q9NXA8 37-310 H158Y): T3 sequence (Q9NXA8 37-310) with H122Y
Description: as §2

Sirt5 Y102F = target: T6, Sirt5 Y102F (Homo sapiens, UniProt Q9NXA8, Y102F); test: Deacylation kinetics by HPLC, mutant Sirt5 Y102F; type: biochemical; details: read-out: Km for peptide
T6 sequence (Q9NXA8 37-310 Y102F): T3 sequence (Q9NXA8 37-310) with Y66F
Description: as §2

Sirt5 R105M = target: T7, Sirt5 R105M (Homo sapiens, UniProt Q9NXA8, R105M); test: Deacylation kinetics by HPLC, mutant Sirt5 R105M; type: biochemical; details: read-out: Km for peptide
T7 sequence (Q9NXA8 37-310 R105M): T3 sequence (Q9NXA8 37-310) with R69M
Description: For determination of kcat and Km, human Sirt1, Sirt2, Sirt3 and Sirt5 were measured by detecting the deacylated peptide from H3K9 acyl peptides using HPLC. […] The reactions were stopped with 100 mM HCl and 160 mM acetic acid, analyzed by HPLC with a reverse phase C18 column (250×4.6 mm, 90 A, 10 μm, GraceVydac, Southborough, Mass.), with a linear gradient of 0% to 20% B for 10 min (1 mL/min). […] The kcat and Km values were obtained by curve-fitting the Vinitial/[E] versus [S] plot using KaleidaGraph. […] The experiments were done in duplicate.

C[C@H](NC(=O)[C@H](CCCCN)NC(=O)CNC(=O)CNC(=O)[C@@H](NC(=O)[C@H](CO)NC(=O)[C@H](CCCCNC(=S)CCC(=O)O)NC(=O)[C@H](CCCNC(=N)N)NC(=O)[C@H](C)NC(=O)[C@@H](NC(=O)[C@H](CCC(N)=O)NC(=O)[C@@H](N)CCCCN)[C@@H](C)O)[C@@H](C)O)C(=O)O [H3K9 TSu, KQTAR(TSuK)STGGKA]
IC50 (Sirt2 [1]; Sirt2 1 μM, 0.3 mM acyl peptide, 0.5 mM NAD, * = no inhibition at 100 μM): > 100 µM
inhibition of Sirt2 (Sirt2 [1]; at 100 μM concentration): did not inhibit
IC50 (Sirt3; Sirt3 1 μM, 0.3 mM acyl peptide, 0.5 mM NAD, * = no inhibition at 100 μM): > 100 µM
inhibition of Sirt3 (Sirt3; at 100 μM concentration): did not inhibit
IC50 (Sirt5 [2]): 5 µM
inhibition of Sirt5 (fluorescence) in fluorogenic assay (Sirt5 [3]): close to background level; also recorded: significant inhibition
fluorescence produced by Sirt2 in fluorogenic assay (Sirt2 [4]): did not significantly decrease the fluorescence
IC50 (Sirt1 [5]; Sirt1 1 μM, 0.3 mM acyl peptide, 0.5 mM NAD, * = no inhibition at 100 μM): > 100 µM
inhibition of Sirt1 (Sirt1 [5]; at 100 μM concentration): did not inhibit

N#C/C(=C\c1ccc(-c2cc(Cl)ccc2Cl)o1)C(=O)Nc1cccc2ncccc12 [AGK2]
IC50 (Sirt5 [2]): 120 µM
IC50 (Sirt1 [6]): > 40 µM

KQTAR(SuK)-AMC (KQTARK(Suc)-{AMC})
fluorescence with Sirt5 (Sirt5 [7]): 3600 relative fluorescence unit
hydrolysis by Sirt5 (Sirt5 [8]; 1 μM Sirt5, 3 hrs): 10%
hydrolysis by Sirt5 (Sirt5 [8]; 5 μM Sirt5, 3 hrs): 60%

H3K9 succinyl peptide: synthesized H3K9 succinyl lysine peptide, Sirt5 substrate (KQTARK(Suc)-{AMC})
kcat (Sirt5 [9]): 0.029 ± 0.002 s⁻¹
Km (Sirt5 [9]; read-out: Km for peptide): 41 ± 11 µM
Km (Sirt5 H158Y): > 750 µM
Km (Sirt5 Y102F): > 750 µM
Km (Sirt5 R105M): > 750 µM
